Ten compounds from patent publication US11319315B2, “Cyclohexyl acid triazole azoles as LPA antagonists” (BRISTOL-MYERS SQUIBB COMPANY, priority 2017, dated 2022) can be followed below.

The experiment deals with T1, human LPA1 (Homo sapiens, UniProt Q92633).
T1 construct: expressed in transfected cells; host or cells: Chinese hamster ovary (CHO) cells
T1 sequence (Q92633 whole entry): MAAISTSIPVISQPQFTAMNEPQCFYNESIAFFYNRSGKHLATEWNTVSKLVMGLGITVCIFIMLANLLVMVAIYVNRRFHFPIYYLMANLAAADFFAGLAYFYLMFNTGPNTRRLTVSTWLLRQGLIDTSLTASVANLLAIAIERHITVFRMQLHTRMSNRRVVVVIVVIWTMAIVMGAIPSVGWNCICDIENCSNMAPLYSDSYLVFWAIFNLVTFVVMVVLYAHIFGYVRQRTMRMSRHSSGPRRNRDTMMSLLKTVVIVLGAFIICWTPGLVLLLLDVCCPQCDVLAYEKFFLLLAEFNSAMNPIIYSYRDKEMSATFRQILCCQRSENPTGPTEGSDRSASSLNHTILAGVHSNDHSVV
Put plainly: LPA1 functional antagonist assay (LPA-induced calcium flux in CHO cells overexpressing human LPA1). It is filed as cell-based. The conditions noted are these: read-out: hLPA1 IC50. The procedure, abridged:
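Calcium flux was triggered by 10 nM LPA after 20 min room-temperature compound pre-incubation (final 0.08 nM to 5 μM, 0.5% DMSO) in human LPA1-overexpressing CHO cells carrying calcium dye. Buffer: HBSS with Ca/Mg, 20 mM HEPES, 0.1% fatty-acid-free BSA; IC50s from 4-parameter logistic fits.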
On the technique in general: A change in cytosolic calcium serves as a functional read-out for many receptors and channels.
With `Cc1nc(-c2nnn(C)c2CNc2nnn(CC(C)C)n2)ccc1O[C@H]1CCC[C@H](C(=O)O)C1` [Example 388, (1S,3S)-3-((6-(5-(((2-isobutyl-2H-tetrazol-5-yl)amino)methyl)-1-methyl-1H-1,2,3-triazol-4-yl)-2-methylpyridin-3-yl)oxy)cyclo-hexane-1-carboxylic acid], the IC50 is 43 nM. For `Cc1nc(-c2nnn(C)c2CNc2nnn(-c3ccccc3)n2)ccc1O[C@H]1CCC[C@H](C(=O)O)C1` [Example 389, (1S,3S)-3-((2-methyl-6-(1-methyl-5-(((2-phenyl-2H-tetrazol-5-yl)amino)methyl)-1H-1,2,3-triazol-4-yl)pyridin-3-yl)oxy)cyclohexane-1-carboxylic acid] the value was 84 nM; for `Cc1nc(-c2nnn(C)c2CNc2nnnn2Cc2ccccc2)ccc1O[C@H]1CCC[C@H](C(=O)O)C1` [Example 390, (1S,3S)-3-((6-(5-(((1-benzyl-1H-tetrazol-5-yl)amino)methyl)-1-methyl-1H-1,2,3-triazol-4-yl)-2-methylpyridin-3-yl)oxy)cyclo-hexane-1-carboxylic acid], 375 nM; for `Cc1nc(-c2nnn(C)c2CNc2nnn(Cc3ccccc3)n2)ccc1O[C@H]1CCC[C@H](C(=O)O)C1` [Example 391, (1S,3S)-3-((6-(5-(((2-benzyl-2H-tetrazol-5-yl)amino)methyl)-1-methyl-1H-1,2,3-triazol-4-yl)-2-methylpyridin-3-yl)oxy)cyclo-hexane-1-carboxylic acid], 23 nM. `C=CCn1nnc(NCc2c(-c3ccc(O[C@H]4CCC[C@H](C(=O)O)C4)c(C)n3)nnn2C)n1` [Example 392, (1S,3S)-3-((6-(5-(((2-allyl-2H-tetrazol-5-yl)amino)methyl)-1-methyl-1H-1,2,3-triazol-4-yl)-2-methylpyridin-3-yl)oxy)cyclo-hexane-1-carboxylic acid]: the IC50 stood at 167 nM. Regarding `CCc1nc(-c2nnn(C)c2CNc2nc(C3CCCC3)ns2)ccc1O[C@H]1CCC[C@H](C(=O)O)C1` [Example 393, (1S,3S)-3-((6-(5-(((3-cyclopentyl-1,2,4-thiadiazol-5-yl)amino)methyl)-1-methyl-1H-1,2,3-triazol-4-yl)-2-ethylpyridin-3-yl)oxy)cyclohexane-1-carboxylic acid], the IC50 was 35 nM. As to `CCc1nc(-c2nnn(C)c2CNc2nc(C(C)(C)C)ns2)ccc1O[C@H]1CCC[C@H](C(=O)O)C1` [Example 394, (1S,3S)-3-((6-(5-(((3-(tert-butyl)-1,2,4-thiadiazol-5-yl)amino)methyl)-1-methyl-1H-1,2,3-triazol-4-yl)-2-ethylpyridin-3-yl)oxy)cyclohexane-1-carboxylic acid], the IC50 was determined as 66 nM. For `CCc1nc(-c2nnn(C)c2CNc2nc(CC(C)C)ns2)ccc1O[C@H]1CCC[C@H](C(=O)O)C1` [Example 395, (1S,3S)-3-((2-ethyl-6-(5-(((3-isobutyl-1,2,4-thiadiazol-5-yl)amino)methyl)-1-methyl-1H-1,2,3-triazol-4-yl)pyridin-3-yl)oxy)cyclohexane-1-carboxylic acid] the value was 22 nM; for `CCc1nc(-c2nnn(C)c2CNc2nc(C3CCC3)ns2)ccc1O[C@H]1CCC[C@H](C(=O)O)C1` [Example 396, (1S,3S)-3-((6-(5-(((3-cyclobutyl-1,2,4-thiadiazol-5-yl)amino)methyl)-1-methyl-1H-1,2,3-triazol-4-yl)-2-ethylpyridin-3-yl)oxy)cyclohexane-1-carboxylic acid], 33 nM; for `CCc1nc(-c2nnn(C)c2CNc2nc(C3CC3)ns2)ccc1O[C@H]1CCC[C@H](C(=O)O)C1` [Example 397, (1S,3S)-3-((6-(5-(((3-cyclopropyl-1,2,4-thiadiazol-5-yl)amino)methyl)-1-methyl-1H-1,2,3-triazol-4-yl)-2-ethylpyridin-3-yl)oxy)cyclohexane-1-carboxylic acid], 931 nM.

By IC50 is commonly meant the concentration that inhibits the measured activity by half.
